# Laboratory results as given in PMC8298232 (Archives of Toxicology, 2021).
# Several values for one entry are separate records, joined by “and”; a condition that tells them apart may be missing. Equal values may be shown once.
# How the values were obtained:
# [1] = Kinetics of UV 328 and its metabolites in blood after single oral exposure of volunteers; format: in vivo, human
# Experimental: Furthermore, blood samples were drawn from each volunteer 2, 4, 6, 8, 10, 24, […] 48 h after exposure. In summary, […] blood samples were collected from every volunteer. One volunteer donated two EDTA—Monovettes® (Sarstedt, Nümbrecht, Germany) for every time point. So, for every sampling time one sample was kept as whole blood while the plasma fraction was extracted for the other. In this case, the respective blood vessels were centrifuged at 800 × g for 5 min. The supernatants were transferred to 15 mL conical plastic tubes (Sarstedt, Nümbrecht, Germany). Both blood and plasma samples were stored frozen at − 50 °C until analysis.
# Analysis of blood samples was performed according to a previously published method (Denghel and Göen [2021]). In summary, blood proteins and cellular components were precipitated by the addition of ACN. Afterwards, the supernatant was diluted with sodium chloride solution and the investigated analytes were extracted by dispersive liquid–liquid microextraction (DLLME) using a mixture of CH2Cl2 and ACN. […] Variation coefficients ranged from 2 to 9% for precision in series and from 3 to 11% for interday precision. Additionally, relative recovery rates between 80 and 100% were found.
# The ln-transformed mean excretion curve was plotted against the time (in h) to obtain the slope (kel, elimination rate constant) and the excretion half-life (t1/2) as follows: t1/2=ln2/|kel|.
# animal studies = settings: oral exposure, ref CIBA-GEIGY [1978], Kim et al. [2011a]; cited from earlier work
# [2] = Medical laboratory values (liver, kidney, LDH, CK) of volunteers before, during and one week after oral exposure; format: in vivo, human; settings: third subject, seven days after exposure; not attributed to the exposure by the investigators
# Experimental: Because of potential confounding effects on those liver and kidney laboratory parameters and their potential to indicate massive cell destruction, lactate dehydrogenase (LDH) and creatinine kinase (CK) were included in the medical blood work as well. All medical laboratory values were carried out by an accredited medical laboratory. Thus, initial pathological laboratory values for liver or kidney function were defined as further exclusion criteria for study participation. In case of occurrence of relevant pathological medical values for liver or kidney function during the ongoing study which could be attributable to the study exposure, no further subjects were to be included until further clarification, potentially leading to a full cessation of the whole study.
# [3] = Shares of conjugated analytes in urine (analysis with and without β-glucuronidase/arylsulfatase hydrolysis); settings: for Conjugation ratio: with vs without hydrolysis
# Experimental: The analysis of urine samples was performed with and without hydrolysis for one volunteer to determine the shares of analytes conjugated with glucuronic acid or sulfate. Initially, urine samples were thawed, equilibrated to room temperature and homogenized using a vortex mixer. Afterwards, the Monovettes® were centrifuged for 2 min at 1600 g to sediment solid residue in the sample. 1 mL of the sample was transferred into a 15 mL conical tube (Sarstedt, Nümbrecht, Germany). Without hydrolysis, 1 mL of the urine samples was prepared with 200 μL of ammonium acetate buffer (1 mol/L, pH 6) and 10 μL of the internal standard mix solution. […] Finally, the calculated analyte excretion rates (see Sect. “Evaluation of renal elimination”) obtained with hydrolysis were correlated with the ones prepared without hydrolysis for every detected compound. A linear curve fit was applied to the plotted data points. The resulting slope of the regression line described the percentage of free and therefore unconjugated analyte.
# Therefore, urine samples of one volunteer were analyzed with and without addition of β-glucuronidase/arylsulfatase from Helix pomatia and incubation according to the standard procedure previously published (Denghel and Göen [2020]) (see Sect. “Analysis of urine samples without hydrolysis”).
# beagle dogs [4] = settings: ref US EPA [2009]; cited from earlier work
# rats = settings: ref ECHA [2013], Geigy [1970], Til et al. [1968]; cited from earlier work
# [5] = Renal elimination kinetics of UV 328 and its metabolites in urine after single oral exposure; settings: for REmax (maximum renal excretion rate): human urine with hydrolysis; for REmax (maximum renal excretion rate) / FUE after 24 h (urinary excretion factor as dose equivalents of UV 328) / FUE after 72 h ≙ Fraction of oral dose: mean ± SD; for share of cumulative amounts of all quantified analytes in urine: urine with hydrolysis, cumulative within 72 h; for Tmax / half-life: both, human, urine, po; for half-life: t½ (renal elimination half-life); for FUE after 24 h (urinary excretion factor as dose equivalents of UV 328): 0–24 h; for FUE after 72 h ≙ Fraction of oral dose: 0–72 h
# Experimental: Three volunteers (two men and one person, mean age 37.3 ± 15.5, mean body weight 81.3 ± 6.1 kg) were selected for the in vivo study. Prior to oral exposure, every volunteer collected one urine sample. Additionally, one blood sample was taken using EDTA-Monovettes® (Sarstedt, Nümbrecht, Germany) before exposure. […] Thereby, a safety factor of 100 was considered for single application and interspecies differences, resulting in a dose of 0.3 mg/kg bw. […] Participants collected the total urine volume of each void separately throughout 72 h and recorded the respective sampling times. […] The urine samples were volumetrically measured for each sampling point, aliquoted in urine Monovettes® (Sarstedt, Nümbrecht, Germany) and stored frozen at − 50 °C until analysis.
# The urine samples were processed according to a previously published procedure (Denghel and Göen [2020]). In brief, urine samples were enzymatically hydrolyzed using β-glucuronidase/arylsulfatase from Helix pomatia. […] The extracts were derivatized with BSA/TMCS and TSIM and finally measured via GC–MS/MS with advanced electron ionization (AEI).
# Thereby, RE,i is the renal excretion rate for the urine sample i (in µg/h), ci is the analyte concentration in the urine sample (in µg/L), Vi is the volume of the urine sample (in L) and ti and ti-1 are the elapsed time values (in h) of the sample and the previous sample, respectively.
# Afterwards, the time course of the excretion rates RE,i was recorded for the middle of the respective sampling period (ti,m in h) according to the equation: ti,m=ti-1+ti-ti-1/2.
# The current excretion rates were plotted as a function of the average time of the respective sampling period for every volunteer and each analyte.
# Finally, mean excretion curves were calculated by taking the average of related urinary sampling times and the corresponding renal excretion rates (in µg/h) for all volunteers’ samples (arithmetic mean ± standard deviation). The mean cumulative excreted amount (in µmol) of all volunteers was obtained by addition of each molar excreted amount: ∑i=0nci×Vi/M.
# Thereby, ci is the concentration of the metabolite in urine (in µg/L), Vi is the volume of the respective urine sample (in L) and M is the molar mass of the respective metabolite (in µg/µmol).
# Afterwards, excretion half-lives (t1/2) (in h) were ascertained as described in Sect. “Evaluation of blood kinetics” by plotting the current excretion rates as function of time.
# beagle dogs [6] = settings: ref ECHA [2013], Geigy [1970], Til et al. [1968]; cited from earlier work
# [7] = Distribution between blood compartments (plasma to blood ratio); format: in vivo, human
# Experimental: Furthermore, blood samples were drawn from each volunteer 2, 4, 6, 8, 10, 24, 34 and 48 h after exposure. In summary, eight blood samples were collected from every volunteer. […] So, for every sampling time one sample was kept as whole blood while the plasma fraction was extracted for the other. In this case, the respective blood vessels were centrifuged at 800 × g for 5 min. The supernatants were transferred to 15 mL conical plastic tubes (Sarstedt, Nümbrecht, Germany). Both blood and plasma samples were stored frozen at − 50 °C until analysis.
# Therefore, the concentrations of the analytes in whole blood and plasma were determined according to the SOP (Denghel and Göen [2021]) and an established procedure (see supplemental material), respectively. The results for whole blood and plasma were plotted against the time points of the respective sampling and the plasma to blood ratios (p/b) were calculated by a simplified approach for estimating the AUC ratios. Therefore, all plasma concentrations (in µg/L) determined were added and divided through the sum of the respective blood concentrations (in µg/L) according to the equation: p/b=∑i=0ncplasma/∑i=0ncblood.
# Analysis of plasma samples
# For the analysis of plasma samples, the procedure for blood samples was adjusted as follows: Initially, CPD plasma was equilibrated to room temperature and homogenized by manual shaking. Frozen samples of the study participants were thawed, equilibrated to room temperature, and homogenized using a vortex mixer. Aliquots of 1 mL were prepared with 10 µL of the internal standard mix. Afterwards, the plasma proteins were precipitated by the additions of 3 mL ACN with 0.1 % formic acid. The samples were vortex-blended for 1 min and centrifuged for 15 min at 3000 x g. The supernatants were transferred into 25 mL tubes with conical bottom (Sarstedt, Nümbrecht, Germany) and diluted with 4 mL of 1 % sodium chloride solution. Afterwards, a mixture of 800 µL CH 2Cl2 and 800 µL ACN was added to every tube. Again, the samples were vortex - blended for 1 min and centrifuged for 15 min at 3000 x g. The upper organic phases wer e transferred into 3 mL screw vials (Müller + Krempel AG, Bülach, Switzerland) and dried under nitrogen. The residues were derivatized with 90 µL BSA + 5 % TMCS. After 30 min reaction time at room temperature, 10 µL of 10 % TSIM were added. The samples wer e transferred to micro inserts, sealed with crimping caps, and incubated at 40 °C for 90 min. Finally, measurement was performed using GC -MS/MS
# [8] = blood samples 8 h after exposure, without hydrolysis, n = 3
# [9] = both sexes, human, in vivo, po, 0.3 mg/kg
# [10] = both sexes, human, in vivo, po, 0.3 mg/kg, t1/2 (0–24 h) in blood
# [11] = both sexes, human, in vivo, po, 0.3 mg/kg, t1/2 (24–48 h) in blood
# [12] = both sexes, human, whole blood, po, 0.3 mg/kg bw, human whole blood, oral 0.3 mg UV 328/kg body weight, mean ± SD, n = 3
# [13] = both sexes, human, whole blood, po, 0.3 mg/kg bw, human whole blood, oral 0.3 mg UV 328/kg body weight, n = 3, read-out: tmax in blood
# [14] = human whole blood, oral 0.3 mg UV 328/kg body weight, mean ± SD, n = 3
# [15] = both sexes, human, in vivo, po, tmax in blood
# [16] = both sexes, human, whole blood, po, 0.3 mg/kg, first elimination phase, human blood, oral 0.3 mg/kg bw, n = 3, read-out: t1/2 (0–24 h) in blood (converted)
# [17] = both sexes, human, whole blood, po, 0.3 mg/kg, second elimination phase, human blood, oral 0.3 mg/kg bw, n = 3, read-out: t1/2 (24–48 h) in blood (converted)
# [18] = 0.3 mg/kg, human urine, monophasic, oral 0.3 mg/kg bw, n = 3
# [19] = post-dosage human urine, collected until 72 h
# [20] = sum of plasma concentrations / sum of blood concentrations, one volunteer (n = 1)
smiles,measurement,setting,value
"CCC(C)(C)c1cc(-n2nc3ccccc3n2)c(O)c(C(C)(C)CC)c1 [UV 328, 2-(2H-Benzotriazol-2-yl)-4,6-di-tert-pentylphenol]",share of all detected parameters in blood,[1]; [8],95.2 ± 2.0%
same,concentration at 24 h,[1]; [9],83.1 ± 54.2 ng/mL
same,concentration at 48 h,[1]; [9],29.1 ± 19.4 ng/mL
same,half-life,[1]; [10],5.3 h
same,half-life,[1]; [11],16.3 h
same,Cmax,[1]; [12],736 ± 489 ng/mL
same,Tmax,[1]; [13],8 h
same,cmax in blood,[1]; [14],736.2 ± 488.7 µg/L
same,acute toxicity,animal studies,No acute toxicity was observed
same,CK value (creatinine kinase),[2],6784 U/L
same,share excreted via urine without conjugation to glucuronic acid or sulfate,[3]; urine of one volunteer,about 84%
same,slope of the linear regression line (excretion rates without vs with hydrolysis),"[3]; urine of one volunteer, slope = fraction of free analyte",0.84
same,No Observed Adverse Effect Level (NOAEL),beagle dogs [4],30 mg UV 328/kg bw/day
same,toxicity after repeated oral administration,rats,specific target organ toxicity to liver and kidneys
same,REmax (maximum renal excretion rate),"[5]; oral 0.3 mg/kg bw, n = 3",0.013 ± 0.003 µg/h
same,share of cumulative amounts of all quantified analytes in urine,[5]; n = 3,1.0 ± 0.1%
same,toxicity after repeated oral administration,beagle dogs [6],specific target organ toxicity to liver and kidneys
"CCC(C)(C)c1cc(C(C)(C)C(C)=O)cc(-n2nc3ccccc3n2)c1O [UV 328-4/3-CO, 2-(2H-benzotriazol-2-yl)-4-(2-methylbutan-3-on-2-yl)-6-(tert-pentyl)phenol]",concentration at 24 h,[1]; [9],0.9 ± 0.3 ng/mL
same,half-life,[1]; [10],8.3 h
same,half-life,[1]; [11],16.4 h
same,Tmax,[1]; [15],8 h
same,Conjugation ratio,[3]; urine of one volunteer,100%
same,p/b ratio (plasma to blood ratio),"[7]; human, in vivo",3.2
"CC(=O)C(C)(C)c1cc(-n2nc3ccccc3n2)c(O)c(C(C)(C)C(C)O)c1 (centres unmarked) [UV 328-4/3-CO-6/3-OH, 2-(2H-benzotriazol-2-yl)-4-(2-methylbutan-3-on-2-yl)-6-(3-hydroxy-2-methylbutan-2-yl)phenol]",share among the quantified metabolites in blood,[1]; [8],13.7 ± 2.5%
same,half-life,"[1]; both sexes, human, whole blood, oral, 0.3 mg/kg bw, human blood, plateau-shaped elimination curve, phase not specified, read-out: elimination half-life in blood",> 600 h
same,Cmax,[1]; [12],4.95 ± 0.72 ng/mL
same,Tmax,[1]; [13],24 to 34 h
same,half-life,[1]; [16],< 600 h
same,half-life,[1]; [17],< 600 h
same,time at which the plateau of blood levels was reached,"[1]; human blood, post-dosage",around 10 h
same,Conjugation ratio,[3]; urine of one volunteer,100%
same,Tmax,[5]; 0.3 mg/kg,11.3 h
same,half-life,[5]; [18],53.5 h
same,REmax (maximum renal excretion rate),"[5]; oral 0.3 mg/kg bw, n = 3",0.65 ± 0.02 µg/h
same,FUE after 24 h (urinary excretion factor as dose equivalents of UV 328),"[5]; human urine, n = 3",0.038 ± 0.010%
same,FUE after 72 h ≙ Fraction of oral dose,"[5]; human urine, n = 3",0.081% and 0.081 ± 0.018%
same,t½ (renal elimination half-life),"[5]; human urine, monophasic, oral 0.3 mg/kg bw, n = 3, 0.3 mg/kg",53.3 h
same,detection in urine samples after exposure,[5]; [19],still detectable in urine after the observed period of 72 h
same,share of cumulative amounts of all quantified analytes in urine,[5]; n = 3,65.8 ± 10.9%
same,p/b ratio (plasma to blood ratio),[7]; [20],2.0
"CCC(C)(C)c1cc(C(C)(C)C(C)O)cc(-n2nc3ccccc3n2)c1O (centres unmarked) [UV 328-4/3-OH, 2-(2H-benzotriazol-2-yl)-4-(3-hydroxy-2-methylbutan-2-yl)-6-(tert-pentyl)phenol]",share among the quantified metabolites in blood,[1]; [8],19.5 ± 4.9%
same,Cmax,[1]; [12],7.4 ± 0.9 ng/mL
same,Tmax,[1]; [13],10 h
same,half-life,[1]; [16],5.9 h
same,half-life,[1]; [17],15.7 h
same,concentration at 24 h,"[1]; both sexes, whole blood, human blood, 24 h after oral 0.3 mg/kg bw, mean ± SD, n = 3, read-out: mean blood level 24 h after exposure",1.5 ± 0.5 ng/mL
same,tmax in blood,"[1]; human whole blood, oral 0.3 mg UV 328/kg body weight, n = 3",8 h
same,Conjugation ratio,[3]; urine of one volunteer,100%
same,Tmax,[5]; 0.3 mg/kg,9.3 h
same,half-life,[5]; [18],46.4 h
same,REmax (maximum renal excretion rate),"[5]; oral 0.3 mg/kg bw, n = 3",0.10 ± 0.04 µg/h
same,FUE after 24 h (urinary excretion factor as dose equivalents of UV 328),"[5]; human urine, n = 3",0.004 ± 0.001%
same,FUE after 72 h ≙ Fraction of oral dose,"[5]; human urine, n = 3",0.007 ± 0.003%
same,share of cumulative amounts of all quantified analytes in urine,[5]; n = 3,6.1 ± 2.3%
same,p/b ratio (plasma to blood ratio),[7]; [20],2.1
"CCC(C)(C)c1cc(-n2nc3ccccc3n2)c(O)c(C(C)(C)C(C)=O)c1 [UV 328-6/3-CO, 2-(2H-benzotriazol-2-yl)-6-(2-methylbutan-3-on-2-yl)-4-(tert-pentyl)phenol]",plateau concentration in blood,"[1]; human blood, plateau until 48 h after exposure",~0.1 µg/L
same,cmax in blood,[1]; [14],< LOQ
same,detection in urine samples after exposure,[5]; [19],not detected
"CCC(C)(C)c1cc(-n2nc3ccccc3n2)c(O)c(C(C)(C)C(C)O)c1 (centres unmarked) [UV 328-6/3-OH, 2-(2H-benzotriazol-2-yl)-6-(3-hydroxy-2-methylbutan-2-yl)-4-(tert-pentyl)phenol]",concentration at 24 h,[1]; [9],5.2 ± 0.6 ng/mL
same,half-life,[1]; [10],9 h
same,half-life,[1]; [11],17.9 h
same,Tmax,[1]; [15],8 h
same,tmax in blood,"[1]; both, human, in vivo, po",10 h
same,share excreted via urine without conjugation to glucuronic acid or sulfate,"[3]; human, in vivo",about 3%
same,Conjugation ratio,[3]; urine of one volunteer,97%
same,p/b ratio (plasma to blood ratio),"[7]; human, in vivo",2.3
"CCC(C)(C)c1cc(-n2nc3ccc(O)cc3n2)c(O)c(C(C)(C)CC)c1 [UV 328-BTOH, 2-(2H-5-hydroxybenzotriazol-2-yl)-4,6-(di-tert-pentyl)phenol]",detection in blood samples after exposure,"[1]; human, in vivo, po, 0.3 mg/kg",not detected
same,detection in urine samples after exposure,[5]; in vivo,not detected
